From EP0318860B1, “Substituted alkylamine derivatives” (BANYU PHARMACEUTICAL CO., LTD., priority 1987, dated 1989)
Where a name gives a salt, the structure may show the parent alone.

Molecular target: T1, rat squalene epoxidase (Rattus norvegicus, UniProt P52020)
T1 construct: Livers were extracted and homogenized; from tissue; host or cells: liver of SD-strain female rats; microsomes solubilized with 2 % Triton X-100, 105000 x g supernatant
Experiment: Squalene epoxidase inhibiting activity (3H-squalene to squalene-2,3-epoxide, solubilized liver microsome fraction)
Type: biochemical
Conditions: 8 µM 3H-squalene, 37 °C, 30 minutes, read-out: 50 % inhibitory concentration (IC50)
Description: The rat squalene epoxidase was prepared by the method described in J. Biol. Chem., vol.
SD-strain female rats were killed by exsanguination. Livers were extracted and homogenized with in the presence of 2 volumes of 0.1M Tris-HCl buffer (pH 7.5). The homogenate was centrifuged at 9750 Xg for 10 minutes. The supernatant fraction was further centrifuged at 105000 Xg for 1 hour. The sediment was washed with 0.1M Tris-HCl buffer (pH 7.5), and then centrifuged at 105000 Xg for 1 hour. The microsomes obtained were suspended in 0.1M Tris-HCl buffer (pH 7.5) so that the amount of proteins was 40 mg/ml, and under ice cooling, the suspension was stirred in the presence of 2 % Triton X-100 to solubilize the enzyme. After the solubilization, the solution was diluted to a Triton X-100 concentration of 0.5 % with 1 mM EDTA and 1 mM dithiothreitol, and centrifuged at 105000 Xg for 1 hour. The resulting supernatant fraction was used in the following test as a squalene epoxidase fraction.
The squalene epoxidase activity was assayed in accordance with the method described in J. Biol. Chem., vol.
Three microliters of a dimethyl sulfoxide solution of a test drug was added to a solution composed of 0.2 ml of the squalene epoxidase fraction prepared in (1) [proteins 0.4 mg, 0.5 % Triton X-100, […] Tris-HCl buffer (pH 7.5)], 100 µM FAD, 1 mM NADPH, 1 mM EDTA and 8 µM ³H-squalene-Tween 80 emulsion to adjust the total amount of the solution to 0.3 ml. The solution was incubated at 37 °C for 30 minutes with shaking. Then, 0.3 ml of a 10 % methanolic potassium hydroxide was added to stop the reaction, and the reaction mixture was left to stand at room temperature for 1 hour. The non-saponified material was extracted with petroleum ether, and the solvent was evaporated under a nitrogen stream. […] The position of the resulting ³H-squalene-2,3-epoxide on TLC was determined using ergosterol acetate as a marker, and the ³H-squalene-2,3-epoxide portion on the TLC was cut off. The TLC strip was immersed in a toluene-type scintillator, and measured by a liquid scintillation counter.

T1 sequence (P52020 whole entry): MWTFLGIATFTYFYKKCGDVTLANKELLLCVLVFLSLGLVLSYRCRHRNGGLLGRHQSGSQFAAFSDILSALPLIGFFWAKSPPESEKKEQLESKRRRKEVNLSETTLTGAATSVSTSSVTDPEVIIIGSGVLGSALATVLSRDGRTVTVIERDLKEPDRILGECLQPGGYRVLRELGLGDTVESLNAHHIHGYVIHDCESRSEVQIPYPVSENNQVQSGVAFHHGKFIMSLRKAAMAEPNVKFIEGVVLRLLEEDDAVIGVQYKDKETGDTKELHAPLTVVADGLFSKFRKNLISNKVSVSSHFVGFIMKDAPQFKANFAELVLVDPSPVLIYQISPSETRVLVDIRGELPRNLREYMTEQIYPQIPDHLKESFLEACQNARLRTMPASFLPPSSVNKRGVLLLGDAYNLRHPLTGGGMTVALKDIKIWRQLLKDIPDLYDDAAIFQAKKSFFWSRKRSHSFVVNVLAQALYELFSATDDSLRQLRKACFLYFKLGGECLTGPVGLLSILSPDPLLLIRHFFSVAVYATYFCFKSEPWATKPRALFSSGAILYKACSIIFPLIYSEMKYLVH

| SMILES | IC50 |
| --- | --- |
| CC(C)(C)C#C/C=C/CNCc1cccc(OCc2ccccc2)c1 [Compound 1, (E)-N-(6,6-dimethyl-2-hepten-4-ynyl)-3-benzyloxybenzylamine] | 6800 nM |
| CN(C/C=C/C#CC(C)(C)C)Cc1cccc(OCc2cccc(Cl)c2)c1 [Compound 8, (E)-N-(6,6-dimethyl-2-hepten-4-ynyl)-N-methyl-3-(3-chlorobenzyloxy)benzylamine] | 2900 nM |
| CN(C/C=C/C#CC(C)(C)C)Cc1cccc(OCc2ccc(F)cc2)c1 [Compound 10, (E)-N-(6,6-dimethyl-2-hepten-4-ynyl)-N-methyl-3-(4-fluorobenzyloxy)benzylamine] | 4700 nM |
| COc1ccc(COc2cccc(CN(C)C/C=C/C#CC(C)(C)C)c2)cc1 [Compound 12, (E)-N-(6,6-dimethyl-2-hepten-4-ynyl)-N-methyl-3-(4-methoxybenzyloxy)benzylamine] | 6000 nM |
| CC(Oc1cccc(CN(C)C/C=C/C#CC(C)(C)C)c1)c1ccccc1 (stereo not drawn) [Compound 16, (E)-N-(6,6-dimethyl-2-hepten-4-ynyl)-N-methyl-3-(alpha-phenethyloxy)benzylamine] | 1400 nM |
| CN(C/C=C\C#CC(C)(C)C)Cc1cccc(OCc2cccc3ccccc23)c1 [Compound 19, (Z)-N-(6,6-dimethyl-2-hepten-4-ynyl)-N-methyl-3-(1-naphthylmethyloxy)benzylamine] | 3100 nM |
| Cc1ccc(CN(C)C/C=C/C#CC(C)(C)C)cc1OCc1ccccc1 [Compound 28, (E)-(6,6-dimethyl-2-hepten-4-ynyl)-N-methyl-3-benzyloxy-4-methylbenzylamine] | 5600 nM |
| CN(C/C=C/C#CC(C)(C)C)Cc1cccc(OCc2ccco2)c1 [Compound 34, (E)-N-(6,6-dimethyl-2-hepten-4-ynyl)-N-methyl-3-furfuryloxybenzylamine] | 1700 nM |
| C=CCN(C/C=C/C#CC(C)(C)C)Cc1cccc(OCc2ccccc2)c1 [Compound 41, (E)-N-allyl-N-(6,6-dimethyl-2-hepten-4-ynyl)-3-benzyloxybenzylamine] | 2100 nM |
| C#CCN(C/C=C/C#CC(C)(C)C)Cc1cccc(OCc2ccccc2)c1 [Compound 42, (E)-N-(6,6-dimethyl-2-hepten-4-ynyl)-N-propargyl-3-benzyloxybenzylamine] | 9600 nM |
| CC(C)(C)C#C/C=C/CN(Cc1cccc(OCc2ccccc2)c1)C1CC1 [Compound 43, (E)-N-cyclopropyl-N-(6,6-dimethyl-2-hepten-4-ynyl)-3-benzyloxybenzylamine] | 3900 nM |
| Cc1cc(CN(C)C/C=C/C#CC(C)(C)C)cc(OCc2ccccc2)c1 [Compound 48, (E)-N-(6,6-dimethyl-2-hepten-4-ynyl)-N-methyl-3-benzyloxy-5-methylbenzylamine hydrochloride] | 5100 nM |
| CN(C/C=C/C#CC(C)(C)C)Cc1ccc(F)c(OCc2ccccc2)c1 [Compound 49, (E)-N-(6,6-dimethyl-2-hepten-4-ynyl)-N-methyl-3-benzyloxy-4-fluorobenzylamine] | 4900 nM |
| CN(C/C=C/C#CC(C)(C)C)Cc1ccc(O)c(OCc2ccccc2)c1 [Compound 50, (E)-N-(6,6-dimethyl-2-hepten-4-ynyl)-N-methyl-3-benzyloxy-4-hydroxybenzylamine hydrochloride] | 2100 nM |
| COc1ccccc1COc1cccc(CN(C)C/C=C/C#CC(C)(C)C)c1 [Compound 51, (E)-N-(6,6-dimethyl-2-hepten-4-ynyl)-N-methyl-3-(2-methoxybenzyloxy)benzylamine hydrochloride] | 1100 nM |
| COc1cccc(COc2cccc(CN(C)C/C=C/C#CC(C)(C)C)c2)c1 [Compound 52, (E)-N-(6,6-dimethyl-2-hepten-4-ynyl)-N-methyl-3-(3-methoxybenzyloxy)benzylamine hydrochloride] | 1400 nM |
| Cc1cccc(COc2cccc(CN(C)C/C=C/C#CC(C)(C)C)c2)c1 [Compound 53, (E)-N-(6,6-dimethyl-2-hepten-4-ynyl)-N-methyl-3-(3-methylbenzyloxy)benzylamine] | 660 nM |
| Cc1ccc(COc2cccc(CN(C)C/C=C/C#CC(C)(C)C)c2)cc1 [Compound 54, (E)-N-(6,6-dimethyl-2-hepten-4-ynyl)-N-methyl-3-(4-methylbenzyloxy)benzylamine] | 1800 nM |

| SMILES | IC50 |
| --- | --- |
| Cc1cccc(COc2cccc(CN(C)C/C=C/C#CC(C)(C)C)c2)c1C [Compound 55, (E)-N-(6,6-dimethyl-2-hepten-4-ynyl)-N-methyl-3-(2,3-dimethylbenzyloxy)benzylamine hydrochloride] | 600 nM |
| CN(C/C=C/C#CC(C)(C)C)Cc1cccc(OCc2ccccc2Cl)c1 [Compound 56, (E)-N-(6,6-dimethyl-2-hepten-4-ynyl)-N-methyl-3-(2-chlorobenzyloxy)benzylamine] | 2100 nM |
| CN(C/C=C/C#CC(C)(C)C)Cc1cccc(OCc2cccc(C(F)(F)F)c2)c1 [Compound 57, (E)-N-(6,6-dimethyl-2-hepten-4-ynyl)-N-methyl-3-(3-trifluoromethylbenzyloxy)benzylamine hydrochloride] | 3100 nM |
| CN(C/C=C/C#CC(C)(C)C)Cc1cccc(OCCCc2ccccc2)c1 [Compound 58, (E)-N-(6,6-dimethyl-2-hepten-4-ynyl)-N-methyl-3-(3-phenylpropoxy)benzylamine hydrochloride] | 7900 nM |
| CCc1ccccc1COc1cccc(CN(C)C/C=C/C#CC(C)(C)C)c1 [Compound 62, (E)-N-(6,6-dimethyl-2-hepten-4-ynyl)-N-methyl-3-(2-ethylbenzyloxy)benzylamine hydrochloride] | 360 nM |
| CN(C/C=C/C#CC(C)(C)C)Cc1cccc(OC/C=C/c2ccccc2)c1 [Compound 63, N-[(E)-6,6-dimethyl-2-hepten-4-ynyl]-N-methyl-3-[(E)-3-phenyl-2-propenyloxy]benzylamine hydrochloride] | 5400 nM |
| CN(C/C=C/C#CC(C)(C)C)Cc1cccc(OCc2cccc(O)c2)c1 [Compound 65, (E)-N-(6,6-dimethyl-2-hepten-4-ynyl)-N-methyl-3-(3-hydroxybenzyloxy)benzylamine] | 4600 nM |
| CN(C/C=C/C#CC(C)(C)C)Cc1cccc(OCc2ccccc2F)c1 [Compound 66, (E)-N-(6,6-dimethyl-2-hepten-4-ynyl)-N-methyl-3-(2-fluorobenzyloxy)benzylamine hydrochloride] | 1200 nM |
| CN(C/C=C/C#CC(C)(C)C)Cc1cccc(OCc2ccccc2C#N)c1 [Compound 67, (E)-N-(6,6-dimethyl-2-hepten-4-ynyl)-N-methyl-3-(2-cyanobenzyloxy)benzylamine hydrochloride] | 2400 nM |
| CN(C/C=C/C#CC(C)(C)C)Cc1cccc(OCc2ccccc2C(F)(F)F)c1 [Compound 68, (E)-N-(6,6-dimethyl-2-hepten-4-ynyl)-N-methyl-3-(2-trifluoromethylbenzyloxy)benzylamine hydrochloride] | 1200 nM |
| C=C(C)c1cccc(COc2cccc(CN(C)C/C=C/C#CC(C)(C)C)c2)c1 [Compound 69, (E)-N-(6,6-dimethyl-2-hepten-4-ynyl)-N-methyl-3-(3-isopropenylbenzyloxy)benzylamine] | 510 nM |
| CC(C)=Cc1cccc(COc2cccc(CN(C)C/C=C/C#CC(C)(C)C)c2)c1 [Compound 70, (E)-N-(6,6-dimethyl-2-hepten-4-ynyl)-N-methyl-3-[3-(2-methyl-1-propenyl)benzyloxy]benzylamine] | 3100 nM |
| C=C(C)Cc1cccc(COc2cccc(CN(C)C/C=C/C#CC(C)(C)C)c2)c1 [Compound 71, (E)-N-(6,6-dimethyl-2-hepten-4-ynyl)-N-methyl-3-[3-(2-methyl-2-propenyl)benzyloxy]benzylamine] | 540 nM |
| CC(C)=CCc1cccc(COc2cccc(CN(C)C/C=C/C#CC(C)(C)C)c2)c1 [Compound 72, (E)-N-(6,6-dimethyl-2-hepten-4-ynyl)-N-methyl-3-[3-(3-methyl-2-butenyl)benzyloxy]benzylamine] | 9700 nM |
| CC(C)=CCOc1cccc(COc2cccc(CN(C)C/C=C/C#CC(C)(C)C)c2)c1 [Compound 73, (E)-N-(6,6-dimethyl-2-hepten-4-ynyl)-N-methyl-3-[3-(3-methyl-2-butenyloxy)benzyloxy]benzylamine] | 2300 nM |
| CN(C/C=C/C#CC(C)(C)C)Cc1cccc(OCc2cccc(-c3ccccc3)c2)c1 [Compound 74, (E)-N-(6,6-dimethyl-2-hepten-4-ynyl)-N-methyl-3-(3-phenylbenzyloxy)benzylamine hydrochloride] | 570 nM |
| CN(C/C=C/C#CC(C)(C)C)Cc1cccc(OCc2cccc(-c3ccco3)c2)c1 [Compound 75, (E)-N-(6,6-dimethyl-2-hepten-4-ynyl)-N-methyl-3-[3-(2-furyl)benzyloxy]benzylamine hydrochloride] | 140 nM |
